One test deals with T1, human Cav2.2 (Homo sapiens, UniProt Q00975).
T1 construct: cells endogenously expressing human Cav2.2; endogenous in cells; host or cells: IMR32 cells
Put plainly: Calcium flux (FLIPR, Calcium 4 dye) in IMR32 cells endogenously expressing human Cav2.2. It is filed as cell-based. The note with it: 60 minute pre-incubation, 2 μM nifedipine to block L-type channels, depolarized with 80 mM KCl, 5 mM CaCl2, average of n≥2 runs unless marked *. The procedure, abridged:
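IMR32 cells were dye-loaded 1.5 h at room temperature in HBSS/HEPES pH 7.4, then preincubated 60 min with compounds (10 μM to 0.1 nM) plus 1.3 mM CaCl2 and 2 μM nifedipine. Influx triggered by 5 mM CaCl2 with 80 mM KCl depolarization, FLIPR read; IC50 from sigmoidal fit of percent inhibition, usually n≥2.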

Test [1] has as its system Sprague Dawley rats (CCI neuropathic pain). Put plainly: Chronic constriction injury (CCI) model of neuropathic pain, tactile allodynia by von Frey filaments. The following applies: male Sprague Dawley rats, 10 mg/kg orally in 10% dimethyl sulfoxide/polyethylene glycol, mechanical allodynia 60 minutes after administration, calculated from log g paw withdrawal threshold. The test is classed as in vivo, rat. On the procedure:
Test compounds can be evaluated for analgesic effect in an in vivo model of neuropathic pain. Specifically, animals were prepared for testing, by use of a surgical procedure that induces neuropathic pain in one paw. IACUC guidelines for rodent survival surgery were followed. All surgical procedures were conducted on a clean, uncluttered surgical station. The area was wiped with a 70% ethanol solution before and after use. All instruments were sterilized by either autoclave or chemical sterilant (such as 2% glutaraldehyde>10 hours). Surgeons wore sterile gloves (for the initial procedure), clean lab coat or scrubs, hairnet or cap, and a half-mask respirator (when not working under a hood). Surgeons thoroughly washed their hands prior to donning sterile gloves. Gloves were disinfected in-between animals by cleansing with povidone iodine, chlorhexidine or 70% alcohol for at least 30 seconds. If multiple surgeries were performed, the instruments were cleaned and sterilized between procedures with hot glass beads (>10 seconds). To prevent thermal or chemical burns, the instruments were cooled by rinsing in sterile saline before use.
Male, Sprague Dawley® rats, 175-200 g were used for surgeries. To minimize post-operative dehydration/maintain blood volume during the surgery, warmed sterile saline or Lactate Ringers solution at 10-15 mL/kg was administered subcutaneously immediately before or after surgery. This facilitates better renal function and presumably anesthesia product excretion post surgery. For all surgical procedures, anesthesia was induced with 4-5% isoflurane. Anesthesia was maintained during surgery with 1-3% isoflurane. Following induction, the surgical site was carefully shaved and the exposed area was aseptically prepared with povidone-iodine scrub solution and 70% ethanol 2-3 times.
Chronic constriction injury (CCI), a model of neuropathic pain, was produced by following the method of Bennett and Xie (Bennett, G., et al. Pain, 1988, 33, 87-107). After site sterilization and anesthetic procedures outline above were completed, a 1.5 cm incision is made at the mid-thigh level to expose the biceps femoris and gluteous superficialis (right side), which were then separated by blunt dissection. The common sciatic nerve was exposed, isolated, and loosely ligated by four 5-0 chromic gut ligatures with <1 mm spacing between each. The surgical site was closed in layers—muscle is closed with 6.0 absorbable sutures, and the skin closed with wound clips. Animals were allowed to recover on a warming plate and were returned to their home cages when fully ambulatory. Animals were not be used for testing until at least 10 days following surgery.
To measure mechanical sensitivity, tactile allodynia was measured using calibrated von Frey filaments (Stoelting, Wood Dale, Ill.) as described by Chaplan et al. (Chaplan S., et al. J of Neuroscience Methods 1994, 53, 55-63). Filament strengths used were: 0.4, 0.6, 1.0, 2, 4, 6, 8, and 15 g. Rats were placed into inverted individual plastic containers (20×12.5×20 cm) on top of a suspended wire mesh grid, and acclimated to the test chambers for at least 20 minutes. Filaments were applied perpendicular to the mid-plantar paw surface with enough force to cause slight buckling and held in place for 6-8 seconds. Positive responses included an abrupt withdrawal of the paw from the stimulus or flinching behavior immediately following removal of the stimulus. The maximum force applied was 15 g. The 50% paw withdrawal threshold (PWT) was calculated in grams (g) using the up-down method of Dixon (Dixon W. Ann Rev Pharmacol Toxicol 1980, 20, 441-462). […] All compounds were orally administered at 10 mg/kg in 10% dimethyl sulfoxide/polyethylene glycol at a volume of 2.0 mL/kg, and mechanical allodynia was determined 60 minutes following compound administration
The data are reported as log g values and the percentage of maximum possible effect (% MPE) is calculated using log g values with the Formula: […]

Results on three molecules are retold here after US9382258B2, “Agents for treating pain and uses thereof” (AbbVie Inc., priority 2012, dated 2016).

T1 sequence (Q00975 whole entry): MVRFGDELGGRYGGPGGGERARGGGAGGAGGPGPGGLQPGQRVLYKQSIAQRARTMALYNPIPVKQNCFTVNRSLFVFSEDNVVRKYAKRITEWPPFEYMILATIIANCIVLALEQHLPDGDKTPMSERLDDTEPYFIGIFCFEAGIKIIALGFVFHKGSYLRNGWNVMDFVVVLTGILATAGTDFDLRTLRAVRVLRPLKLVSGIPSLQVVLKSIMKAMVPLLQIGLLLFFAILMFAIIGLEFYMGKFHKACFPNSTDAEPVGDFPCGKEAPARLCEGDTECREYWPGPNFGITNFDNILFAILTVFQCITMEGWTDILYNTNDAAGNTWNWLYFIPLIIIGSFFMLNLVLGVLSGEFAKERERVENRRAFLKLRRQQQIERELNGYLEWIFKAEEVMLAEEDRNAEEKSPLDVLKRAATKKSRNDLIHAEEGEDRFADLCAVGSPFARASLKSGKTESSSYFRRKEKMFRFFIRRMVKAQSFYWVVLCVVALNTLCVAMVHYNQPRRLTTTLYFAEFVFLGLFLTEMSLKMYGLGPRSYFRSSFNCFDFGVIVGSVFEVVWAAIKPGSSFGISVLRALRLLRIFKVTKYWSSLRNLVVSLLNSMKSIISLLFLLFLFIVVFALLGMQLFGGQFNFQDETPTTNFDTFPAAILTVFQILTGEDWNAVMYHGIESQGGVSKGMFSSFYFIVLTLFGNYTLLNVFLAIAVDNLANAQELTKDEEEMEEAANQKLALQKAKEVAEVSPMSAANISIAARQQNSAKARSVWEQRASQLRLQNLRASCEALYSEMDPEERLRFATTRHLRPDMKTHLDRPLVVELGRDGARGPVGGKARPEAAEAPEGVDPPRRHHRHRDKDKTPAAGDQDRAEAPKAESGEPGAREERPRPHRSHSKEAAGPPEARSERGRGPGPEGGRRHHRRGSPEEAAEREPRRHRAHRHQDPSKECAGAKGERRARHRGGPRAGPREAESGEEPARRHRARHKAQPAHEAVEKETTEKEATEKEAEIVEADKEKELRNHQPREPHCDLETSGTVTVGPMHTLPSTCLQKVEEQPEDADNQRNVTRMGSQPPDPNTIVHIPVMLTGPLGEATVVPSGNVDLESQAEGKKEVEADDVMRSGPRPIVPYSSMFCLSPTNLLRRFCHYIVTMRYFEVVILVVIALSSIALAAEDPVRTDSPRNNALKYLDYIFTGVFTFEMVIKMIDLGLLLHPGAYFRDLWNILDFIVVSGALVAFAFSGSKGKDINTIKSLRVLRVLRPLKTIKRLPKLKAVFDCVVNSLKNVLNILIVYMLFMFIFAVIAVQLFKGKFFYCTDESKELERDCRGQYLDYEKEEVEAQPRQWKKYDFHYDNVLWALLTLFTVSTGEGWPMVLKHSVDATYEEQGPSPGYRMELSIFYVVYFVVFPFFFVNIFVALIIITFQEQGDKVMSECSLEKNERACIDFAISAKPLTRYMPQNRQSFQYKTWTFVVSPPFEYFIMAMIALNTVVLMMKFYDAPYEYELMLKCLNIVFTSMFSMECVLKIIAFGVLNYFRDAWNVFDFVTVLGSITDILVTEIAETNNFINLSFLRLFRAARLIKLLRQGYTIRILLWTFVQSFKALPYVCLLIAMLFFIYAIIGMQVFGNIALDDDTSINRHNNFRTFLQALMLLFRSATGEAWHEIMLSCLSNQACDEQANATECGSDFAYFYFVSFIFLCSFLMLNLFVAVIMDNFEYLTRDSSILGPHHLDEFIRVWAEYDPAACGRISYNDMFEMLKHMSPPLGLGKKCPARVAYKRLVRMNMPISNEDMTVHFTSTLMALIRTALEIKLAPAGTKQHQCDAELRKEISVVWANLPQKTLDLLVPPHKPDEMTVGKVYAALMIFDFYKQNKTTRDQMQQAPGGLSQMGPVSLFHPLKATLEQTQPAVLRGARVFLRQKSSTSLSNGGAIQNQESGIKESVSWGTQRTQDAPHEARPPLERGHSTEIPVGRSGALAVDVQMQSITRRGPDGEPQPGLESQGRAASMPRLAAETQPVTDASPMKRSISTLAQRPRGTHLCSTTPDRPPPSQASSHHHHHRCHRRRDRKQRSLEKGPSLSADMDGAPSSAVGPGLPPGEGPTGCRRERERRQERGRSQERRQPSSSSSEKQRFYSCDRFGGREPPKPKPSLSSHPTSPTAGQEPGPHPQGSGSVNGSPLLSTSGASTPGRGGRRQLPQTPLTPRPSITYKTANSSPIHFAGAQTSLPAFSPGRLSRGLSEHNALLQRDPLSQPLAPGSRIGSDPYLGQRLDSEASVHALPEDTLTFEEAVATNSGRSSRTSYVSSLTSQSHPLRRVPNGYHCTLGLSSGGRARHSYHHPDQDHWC
T1 sequence (P54284 whole entry partner): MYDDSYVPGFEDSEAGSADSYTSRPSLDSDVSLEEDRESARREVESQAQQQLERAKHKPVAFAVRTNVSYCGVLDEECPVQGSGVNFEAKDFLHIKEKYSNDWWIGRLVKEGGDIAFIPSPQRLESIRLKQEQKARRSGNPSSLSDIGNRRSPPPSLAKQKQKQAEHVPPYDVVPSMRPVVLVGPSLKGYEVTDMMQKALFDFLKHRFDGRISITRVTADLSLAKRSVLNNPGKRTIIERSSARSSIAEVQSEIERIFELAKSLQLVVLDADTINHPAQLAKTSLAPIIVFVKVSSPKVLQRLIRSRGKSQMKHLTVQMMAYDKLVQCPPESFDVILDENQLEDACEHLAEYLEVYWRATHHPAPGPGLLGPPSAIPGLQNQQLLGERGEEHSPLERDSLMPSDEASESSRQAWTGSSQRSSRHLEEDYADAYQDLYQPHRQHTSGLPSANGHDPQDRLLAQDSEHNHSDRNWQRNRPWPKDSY
T1 sequence (P54289 25-956 partner limits assumed): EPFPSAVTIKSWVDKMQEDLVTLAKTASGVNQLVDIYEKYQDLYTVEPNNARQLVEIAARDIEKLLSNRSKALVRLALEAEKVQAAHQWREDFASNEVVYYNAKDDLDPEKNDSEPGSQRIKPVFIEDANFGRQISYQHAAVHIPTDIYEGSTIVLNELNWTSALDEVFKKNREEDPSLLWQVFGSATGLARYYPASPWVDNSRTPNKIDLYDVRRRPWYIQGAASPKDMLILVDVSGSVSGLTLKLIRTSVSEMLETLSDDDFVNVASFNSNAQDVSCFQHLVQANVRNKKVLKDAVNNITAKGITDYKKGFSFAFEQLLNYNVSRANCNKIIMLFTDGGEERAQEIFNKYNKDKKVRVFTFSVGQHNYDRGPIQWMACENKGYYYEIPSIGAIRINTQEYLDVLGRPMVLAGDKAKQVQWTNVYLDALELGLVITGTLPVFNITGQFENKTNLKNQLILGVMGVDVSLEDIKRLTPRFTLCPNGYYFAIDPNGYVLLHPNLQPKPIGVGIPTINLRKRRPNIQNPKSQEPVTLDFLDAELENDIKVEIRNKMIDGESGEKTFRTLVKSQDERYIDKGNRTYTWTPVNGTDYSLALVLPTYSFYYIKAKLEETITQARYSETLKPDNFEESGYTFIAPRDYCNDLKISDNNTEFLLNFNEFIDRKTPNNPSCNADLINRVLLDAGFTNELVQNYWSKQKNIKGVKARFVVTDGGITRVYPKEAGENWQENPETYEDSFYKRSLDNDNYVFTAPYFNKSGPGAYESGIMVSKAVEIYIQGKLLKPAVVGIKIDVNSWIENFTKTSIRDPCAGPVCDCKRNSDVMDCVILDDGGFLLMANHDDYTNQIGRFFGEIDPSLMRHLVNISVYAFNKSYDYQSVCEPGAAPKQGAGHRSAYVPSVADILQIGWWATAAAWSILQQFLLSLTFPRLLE
T1 sequence (P54289 957-1103 partner limits assumed): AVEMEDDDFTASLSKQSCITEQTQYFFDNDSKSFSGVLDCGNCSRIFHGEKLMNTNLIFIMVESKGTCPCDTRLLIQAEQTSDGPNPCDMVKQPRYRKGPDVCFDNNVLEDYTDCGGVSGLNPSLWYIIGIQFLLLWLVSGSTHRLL

Take `O=C1CCN(Cc2cccc(C(F)(F)F)c2)C[C@@H]2C[C@@H](Oc3cnc(C4CC4)cn3)CN12` [Example 42, (8R,9aS)-8-[(5-cyclopropylpyrazin-2-yl)oxy]-2-[3-(trifluoromethyl)benzyl]octahydro-5H-pyrrolo[1,2-a][1,4]diazepin-5-one]: at human Cav2.2, the IC50 stood at 920 nM. Also, the “% MPE” value in test [1] is 27%.
The like results for `O=C1CCN(Cc2ccc(OC(F)(F)F)cc2)C[C@@H]2C[C@@H](Oc3cnc(C4CC4)cn3)CN12` [Example 44, (8R,9aS)-8-[(5-cyclopropylpyrazin-2-yl)oxy]-2-[4-(trifluoromethoxy)benzyl]octahydro-5H-pyrrolo[1,2-a][1,4]diazepin-5-one] were, in that order, 1650 nM and 48%.
For `O=C1CCN(c2ccc(C(F)(F)F)cn2)C[C@@H]2C[C@@H](Oc3cnc(C4CC4)cn3)CN12` [Example 47, (8R,9aS)-8-[(5-cyclopropylpyrazin-2-yl)oxy]-2-[5-(trifluoromethyl)pyridin-2-yl]octahydro-5H-pyrrolo[1,2-a][1,4]diazepin-5-one], in that order: 2520 nM and 73%.
